# Active and inactive are the calls of the source.
# Key:
# cells [1] = type: functional, cell-based
# cells [2] = type: functional, cell-based; remark: listed apart in the source
# [3] = biological target: T1, Short transient receptor potential channel 4 (Mus musculus, UniProt Q9QUQ5); test: mouse TRPC4 channel activators, dose response, cell-based, HEK293 TRPC4/mu-opioid, Fluo-4 calcium (AID 434937); type: functional
# T1 sequence (Q9QUQ5 whole entry): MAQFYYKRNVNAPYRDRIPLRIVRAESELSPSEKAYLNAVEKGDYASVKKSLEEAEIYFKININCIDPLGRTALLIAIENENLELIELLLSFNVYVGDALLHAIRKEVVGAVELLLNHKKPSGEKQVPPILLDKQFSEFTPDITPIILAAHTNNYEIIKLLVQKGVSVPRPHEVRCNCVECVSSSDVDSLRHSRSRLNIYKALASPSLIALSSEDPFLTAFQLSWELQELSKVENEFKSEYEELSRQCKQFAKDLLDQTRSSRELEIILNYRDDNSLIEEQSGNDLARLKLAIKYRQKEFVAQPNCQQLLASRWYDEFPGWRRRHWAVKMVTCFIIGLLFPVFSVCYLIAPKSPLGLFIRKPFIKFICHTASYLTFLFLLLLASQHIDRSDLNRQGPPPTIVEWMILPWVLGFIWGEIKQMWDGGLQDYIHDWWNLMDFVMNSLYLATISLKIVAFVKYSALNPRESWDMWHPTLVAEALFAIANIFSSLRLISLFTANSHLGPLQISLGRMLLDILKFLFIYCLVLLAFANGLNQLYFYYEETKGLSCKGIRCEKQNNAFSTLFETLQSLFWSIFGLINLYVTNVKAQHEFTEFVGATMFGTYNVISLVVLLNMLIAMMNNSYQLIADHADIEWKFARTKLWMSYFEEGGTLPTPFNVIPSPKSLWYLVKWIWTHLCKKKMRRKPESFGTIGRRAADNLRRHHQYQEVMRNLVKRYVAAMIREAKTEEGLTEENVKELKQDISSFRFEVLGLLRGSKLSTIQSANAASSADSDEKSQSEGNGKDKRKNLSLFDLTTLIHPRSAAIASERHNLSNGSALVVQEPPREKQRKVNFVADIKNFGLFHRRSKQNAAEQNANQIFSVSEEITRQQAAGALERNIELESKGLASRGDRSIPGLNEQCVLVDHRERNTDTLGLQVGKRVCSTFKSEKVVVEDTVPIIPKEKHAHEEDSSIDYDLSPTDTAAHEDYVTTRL
# [4] = biological target: Delta-type opioid receptor (Homo sapiens, UniProt P41143); test: Counterscreen for agonists of heterodimerization of the mu 1 (OPRM1) and delta 1 (OPRD1) opioid receptors: Luminescence-based cell-based high throughput dose response assay to identify agonists of OPRD1 homodimerization. [Related pubchem assays (depositor defined):AID504326, AID504355, AID504692, AID504904, AID504905]; type: functional
# Mu-type opioid receptor = Mu-type opioid receptor (Homo sapiens, UniProt P35372); test: Counterscreen for agonists of heterodimerization of the mu 1 (OPRM1) and delta 1 (OPRD1) opioid receptors: Luminescence-based cell-based high throughput dose response assay to identify agonists of OPRM1 homodimerization.; type: functional;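 also: U2OS cells expressing OPRM1 and beta-arrestin as split beta-galactosidase partners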
# [5] = biological target: 5-hydroxytryptamine receptor 5A (Homo sapiens, UniProt P47898); test: Counterscreen for agonists of OPRM1-OPRD1 heterodimerization: luminescence-based cell-based high throughput dose response assay to identify agonists of 5-hydroxytryptamine (serotonin) 5A receptor (HTR5A). [Related pubchem assays (depositor defined):AID504326, AID504355, AID504692, AID504904, AID504905]; type: functional
# [6] = inhibitors of HIV Env-driven cell fusion, dose response, cherry-pick (AID 652057); type: functional, cell-based
# [7] = CEM21 lymphoblast cell cytotoxicity, dose response, cytotoxicity control for viral fusion inhibitor project, CellTiter-Glo luminescence, cherry-picked (AID 652042); type: functional, cell-based;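 also: potency for signal decrease meaning cytotoxicity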
# [8] = ZM109 Env clade C HIV-1 fusion inhibitors, dose response, HeLa effector, CEM target cells, luciferase, cherry-pick (AID 652058); type: functional, cell-based
# [9] = off-target signal loss in HeLa-CEM21 co-culture – HeLa F-luc CTL cells, cherry-picked, counter-screen for HIV-1 Env fusion inhibitor project, dose response (AID 652040); type: functional, cell-based;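 also: potency for signal decrease marking cytotoxic or nonspecific inhibition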
# [10] = inhibitors of clade B AD8 Env fusion, dose response, cell-based, cherry-pick (AID 652062); type: functional;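 also: luciferase signal from cell-cell fusion driven by HIV-1 clade B AD8 Env; potency is for inhibitors of fusion seen as a drop in luminescence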
# [11] = biological target: T2, Endoribonuclease toxin MazF (Escherichia coli K-12, UniProt P0AE70); test: MazF toxin RNase activators, dose response, biochemical, fluorescence, single-stranded RNA substrate, uHTS hits (AID 588481); type: functional
# T2 sequence (P0AE70 whole entry): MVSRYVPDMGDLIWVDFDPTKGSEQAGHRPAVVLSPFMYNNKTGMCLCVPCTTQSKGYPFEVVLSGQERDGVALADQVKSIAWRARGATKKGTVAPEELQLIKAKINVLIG
# [12] = biological target: Heat shock protein HSP 90-alpha (Homo sapiens, UniProt P07900); type: functional, organism-based
# [13] = biological target: T2, Endoribonuclease toxin MazF; test: fluorescent RNA oligo signal without MazF, dose response, counter-screen for MazEF activator project, biochemical, fluorescence, single-stranded RNase substrate (AID 588502); type: functional
# Escherichia coli [14] = test: microbe, parasite or virus in culture
# Trypsin = Trypsin (Sus scrofa, UniProt P00761); test: porcine trypsin inhibitors, dose response, selectivity assay for Rce1 protease inhibitor project, biochemical, quenched peptide fluorescence, cherry-pick (AID 488789)
# CAAX prenyl protease 2 = CAAX prenyl protease 2 (Homo sapiens, UniProt Q9Y256); test: human Rce1 protease inhibitors, dose response, biochemical, yeast membranes, quenched-peptide fluorescence, cherry-pick (AID 588849)
# Escherichia coli [15] = test: microbe, parasite or virus in culture; remark: listed apart in the source
# HeLa = test: HeLa cell cytotoxicity, dose response, cytotoxicity control for MITF activator project, CellTiter-Glo luminescence, cherry-pick samples (AID 540259); type: functional, cell-based; conditions: Homo sapiens
# NS3 = NS3 (Hepatitis C virus, UniProt A3EZJ3); test: PubChem AID 2173; design: species or system Hepacivirus hominis
# DNA topoisomerase = DNA topoisomerase (Yersinia pestis, UniProt A0A2S9PM60); test: Y. pestis Topo-I inhibitors, cleavage product readout, dose response, biochemical, cherry-pick (AID 588525)
# [16] = biological target: T3, Low molecular weight phosphotyrosine protein phosphatase (Homo sapiens, UniProt P24666); type: functional; conditions: read-out: IC50_Mean;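 also: Dose-response confirmation assay measuring inhibition of LMPTP enzyme activity by fluorescence intensity read-out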
# T3 sequence (P24666 whole entry): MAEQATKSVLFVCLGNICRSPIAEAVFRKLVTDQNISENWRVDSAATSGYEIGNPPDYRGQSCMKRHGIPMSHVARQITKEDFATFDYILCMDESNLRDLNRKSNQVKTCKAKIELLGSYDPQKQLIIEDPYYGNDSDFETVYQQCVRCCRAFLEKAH
# [17] = system: Streptococcus sp. 'group A'; test: growth inhibition of control SK(-) GAS strain, dose response, counter-screen for streptokinase expression inhibitor project, luminescence, kanamycin, BacTiterGlo, confirmation (AID 1900); type: functional, organism-based
# [18] = microbe, parasite or virus in culture; type: functional; conditions: Mycobacterium tuberculosis
# Streptococcus = test: Group A Streptococcus viability loss, dose response, counter-screen for streptokinase expression inhibitor project, luminescence, BacTiterGlo (AID 1915); type: functional, organism-based;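 also: potency for reduction of bacterial viability or growth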
# Beta-galactosidase = Beta-galactosidase (Escherichia coli, UniProt Q8VNN2); test: PubChem AID 485352; type: functional
# [19] = biological target: Type-1 angiotensin II receptor (Homo sapiens, UniProt P30556); test: AT1 receptor antagonists, dose response, selectivity assay for APJ receptor antagonist project, cell-based, uHTS hits (AID 463214); type: functional;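 also: antagonist potency against angiotensin II stimulated AT1 response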
# CHO = test: cytotoxicity in TLR9-MyD88 CHO cells, dose response, cytotoxicity control for TLR9-MyD88 binding inhibitor project, cell-based, luminescence (AID 588339); type: functional, hamster; conditions: Cricetulus griseus;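 also: CHO cells stably coexpressing TLR9 and MyD88 fusions from primary screen; compound exposure lasted 48 hours before viability readout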
# Beta Lactamase = Beta Lactamase (Pseudomonas aeruginosa, UniProt Q932Y6); test: beta-lactamase reporter inhibitor potency, dose response, artefact control for TLR9-MyD88 binding inhibitor project, BLA reporter cells, FRET fluorescence (AID 588341); type: cell-based;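 also: cell based assay in CHO-K1 cells stably expressing beta-lactamase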
# Sequence of Beta Lactamase (Q932Y6 whole entry): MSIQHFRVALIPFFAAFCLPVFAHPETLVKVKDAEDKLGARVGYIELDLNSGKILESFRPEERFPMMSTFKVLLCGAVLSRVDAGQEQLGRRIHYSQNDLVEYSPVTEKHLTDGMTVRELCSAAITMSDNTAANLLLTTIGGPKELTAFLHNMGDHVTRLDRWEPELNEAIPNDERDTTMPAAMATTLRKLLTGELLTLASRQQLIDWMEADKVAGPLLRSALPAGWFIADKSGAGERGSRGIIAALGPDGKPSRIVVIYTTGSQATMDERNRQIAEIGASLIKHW
# Sequence of DNA topoisomerase (A0A2S9PM60 whole entry): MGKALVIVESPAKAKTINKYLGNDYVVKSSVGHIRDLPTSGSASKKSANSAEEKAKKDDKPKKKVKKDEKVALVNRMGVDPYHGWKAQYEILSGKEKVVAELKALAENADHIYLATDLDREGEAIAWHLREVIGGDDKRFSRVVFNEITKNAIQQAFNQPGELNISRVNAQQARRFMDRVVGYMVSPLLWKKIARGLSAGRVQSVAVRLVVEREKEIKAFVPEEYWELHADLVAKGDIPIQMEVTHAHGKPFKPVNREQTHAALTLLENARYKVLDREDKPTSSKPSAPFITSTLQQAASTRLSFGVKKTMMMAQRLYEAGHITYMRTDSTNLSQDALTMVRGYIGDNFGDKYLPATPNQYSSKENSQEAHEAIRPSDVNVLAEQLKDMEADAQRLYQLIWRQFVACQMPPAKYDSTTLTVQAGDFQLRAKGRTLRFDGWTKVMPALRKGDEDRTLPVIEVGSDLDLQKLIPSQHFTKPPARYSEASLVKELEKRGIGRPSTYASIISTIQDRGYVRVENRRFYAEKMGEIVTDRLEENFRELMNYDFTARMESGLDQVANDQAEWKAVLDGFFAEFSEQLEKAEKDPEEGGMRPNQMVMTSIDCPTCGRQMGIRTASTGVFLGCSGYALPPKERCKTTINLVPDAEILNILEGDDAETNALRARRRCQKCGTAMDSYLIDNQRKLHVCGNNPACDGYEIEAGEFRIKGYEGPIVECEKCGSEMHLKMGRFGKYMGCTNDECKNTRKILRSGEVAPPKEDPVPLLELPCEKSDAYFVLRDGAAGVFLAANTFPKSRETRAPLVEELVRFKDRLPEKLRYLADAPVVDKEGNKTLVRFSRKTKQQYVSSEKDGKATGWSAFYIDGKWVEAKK
# Sequence of Delta-type opioid receptor (P41143 whole entry): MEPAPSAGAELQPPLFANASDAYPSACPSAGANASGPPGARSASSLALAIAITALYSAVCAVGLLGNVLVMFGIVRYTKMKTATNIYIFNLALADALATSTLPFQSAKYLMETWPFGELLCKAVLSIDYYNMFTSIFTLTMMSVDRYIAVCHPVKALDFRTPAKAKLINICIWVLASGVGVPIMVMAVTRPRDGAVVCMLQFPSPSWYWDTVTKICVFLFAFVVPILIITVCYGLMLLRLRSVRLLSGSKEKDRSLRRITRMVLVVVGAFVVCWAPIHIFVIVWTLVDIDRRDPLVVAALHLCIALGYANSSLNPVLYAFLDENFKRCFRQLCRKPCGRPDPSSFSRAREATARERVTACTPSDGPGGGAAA
# Sequence of 5-hydroxytryptamine receptor 5A (P47898 whole entry, the tested form may be a part): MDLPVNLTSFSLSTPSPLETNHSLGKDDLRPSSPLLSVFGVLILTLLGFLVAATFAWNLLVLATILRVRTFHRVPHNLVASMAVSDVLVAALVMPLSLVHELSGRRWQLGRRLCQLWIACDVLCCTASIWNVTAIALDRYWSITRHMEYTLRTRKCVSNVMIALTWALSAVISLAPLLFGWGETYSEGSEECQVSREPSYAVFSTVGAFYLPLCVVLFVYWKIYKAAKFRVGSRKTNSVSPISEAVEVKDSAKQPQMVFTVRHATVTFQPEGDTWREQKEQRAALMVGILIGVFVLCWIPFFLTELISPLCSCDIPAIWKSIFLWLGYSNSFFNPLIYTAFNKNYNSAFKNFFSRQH
# Sequence of Mu-type opioid receptor (P35372 whole entry): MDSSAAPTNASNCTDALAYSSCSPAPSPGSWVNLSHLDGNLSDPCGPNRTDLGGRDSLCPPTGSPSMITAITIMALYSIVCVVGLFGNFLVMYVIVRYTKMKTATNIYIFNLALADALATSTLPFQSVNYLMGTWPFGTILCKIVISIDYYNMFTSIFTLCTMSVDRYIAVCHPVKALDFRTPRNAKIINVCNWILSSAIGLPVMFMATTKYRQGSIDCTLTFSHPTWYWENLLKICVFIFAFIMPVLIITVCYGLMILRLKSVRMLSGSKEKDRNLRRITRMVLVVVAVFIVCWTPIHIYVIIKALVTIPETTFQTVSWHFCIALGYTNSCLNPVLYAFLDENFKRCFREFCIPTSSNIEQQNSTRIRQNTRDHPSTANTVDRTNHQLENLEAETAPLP
# Sequence of Type-1 angiotensin II receptor (P30556 whole entry, the tested form may be a part): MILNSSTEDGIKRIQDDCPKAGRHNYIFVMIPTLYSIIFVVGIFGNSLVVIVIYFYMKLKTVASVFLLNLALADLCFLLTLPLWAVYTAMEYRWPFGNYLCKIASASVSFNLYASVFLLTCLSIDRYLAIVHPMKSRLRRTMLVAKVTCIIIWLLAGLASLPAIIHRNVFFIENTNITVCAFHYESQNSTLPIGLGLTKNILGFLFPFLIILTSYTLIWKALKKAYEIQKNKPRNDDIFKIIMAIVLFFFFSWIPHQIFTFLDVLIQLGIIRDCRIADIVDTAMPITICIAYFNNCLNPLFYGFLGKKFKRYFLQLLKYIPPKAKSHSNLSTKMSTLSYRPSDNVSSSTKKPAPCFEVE
# Sequence of NS3 (A3EZJ3 whole entry): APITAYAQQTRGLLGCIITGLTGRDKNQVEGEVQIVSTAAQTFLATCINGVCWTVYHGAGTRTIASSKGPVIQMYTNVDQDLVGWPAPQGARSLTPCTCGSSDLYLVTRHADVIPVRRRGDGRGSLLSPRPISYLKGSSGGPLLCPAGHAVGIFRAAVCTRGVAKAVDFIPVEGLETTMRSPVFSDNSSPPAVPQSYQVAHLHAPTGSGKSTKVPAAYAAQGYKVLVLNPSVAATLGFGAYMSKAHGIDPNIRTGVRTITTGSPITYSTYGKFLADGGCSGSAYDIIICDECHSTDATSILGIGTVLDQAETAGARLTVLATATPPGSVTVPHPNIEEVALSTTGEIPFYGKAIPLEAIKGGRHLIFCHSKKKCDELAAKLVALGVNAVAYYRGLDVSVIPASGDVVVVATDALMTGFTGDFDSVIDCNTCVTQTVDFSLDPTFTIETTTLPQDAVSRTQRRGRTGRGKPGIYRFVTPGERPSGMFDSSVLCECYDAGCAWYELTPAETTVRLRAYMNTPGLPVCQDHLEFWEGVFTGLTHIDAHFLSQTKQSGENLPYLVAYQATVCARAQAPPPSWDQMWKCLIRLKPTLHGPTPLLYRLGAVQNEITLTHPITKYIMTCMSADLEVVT
# Sequence of CAAX prenyl protease 2 (Q9Y256 whole entry): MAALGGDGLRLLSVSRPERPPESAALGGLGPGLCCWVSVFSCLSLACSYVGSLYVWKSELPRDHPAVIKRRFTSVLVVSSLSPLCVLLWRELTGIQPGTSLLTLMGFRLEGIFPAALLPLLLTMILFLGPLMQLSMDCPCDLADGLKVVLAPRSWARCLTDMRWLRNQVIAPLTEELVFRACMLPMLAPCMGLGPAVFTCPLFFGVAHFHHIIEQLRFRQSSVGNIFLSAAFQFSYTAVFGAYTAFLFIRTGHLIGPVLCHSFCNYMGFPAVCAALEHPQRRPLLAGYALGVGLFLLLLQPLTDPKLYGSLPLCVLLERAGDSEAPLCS
# Sequence of Beta-galactosidase (Q8VNN2 whole entry): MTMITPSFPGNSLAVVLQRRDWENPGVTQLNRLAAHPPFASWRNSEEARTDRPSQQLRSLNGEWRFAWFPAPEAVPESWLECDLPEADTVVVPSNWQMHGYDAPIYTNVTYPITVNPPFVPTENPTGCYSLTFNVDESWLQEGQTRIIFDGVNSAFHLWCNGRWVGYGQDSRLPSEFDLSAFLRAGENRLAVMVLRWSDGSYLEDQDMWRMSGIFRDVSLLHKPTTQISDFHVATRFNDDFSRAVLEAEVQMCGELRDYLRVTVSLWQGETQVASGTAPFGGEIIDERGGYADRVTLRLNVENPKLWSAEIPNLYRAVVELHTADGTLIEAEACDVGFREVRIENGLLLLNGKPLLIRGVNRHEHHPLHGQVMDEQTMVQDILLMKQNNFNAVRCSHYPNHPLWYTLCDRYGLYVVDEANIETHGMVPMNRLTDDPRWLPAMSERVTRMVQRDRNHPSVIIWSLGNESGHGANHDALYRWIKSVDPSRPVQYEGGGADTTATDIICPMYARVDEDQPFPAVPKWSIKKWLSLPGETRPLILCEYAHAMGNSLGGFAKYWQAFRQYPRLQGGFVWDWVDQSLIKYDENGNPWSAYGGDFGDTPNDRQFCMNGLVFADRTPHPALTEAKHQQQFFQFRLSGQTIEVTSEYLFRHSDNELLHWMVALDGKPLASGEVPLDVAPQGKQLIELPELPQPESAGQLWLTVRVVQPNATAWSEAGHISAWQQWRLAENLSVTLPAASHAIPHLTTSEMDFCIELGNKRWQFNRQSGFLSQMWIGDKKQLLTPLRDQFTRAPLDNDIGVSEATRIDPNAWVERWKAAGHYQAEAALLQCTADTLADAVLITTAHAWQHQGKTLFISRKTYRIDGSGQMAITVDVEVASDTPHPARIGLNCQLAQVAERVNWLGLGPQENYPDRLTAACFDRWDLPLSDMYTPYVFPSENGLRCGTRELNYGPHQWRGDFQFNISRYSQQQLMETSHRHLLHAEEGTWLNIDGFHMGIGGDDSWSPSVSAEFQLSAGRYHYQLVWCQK
# Sequence of Trypsin (P00761 whole entry): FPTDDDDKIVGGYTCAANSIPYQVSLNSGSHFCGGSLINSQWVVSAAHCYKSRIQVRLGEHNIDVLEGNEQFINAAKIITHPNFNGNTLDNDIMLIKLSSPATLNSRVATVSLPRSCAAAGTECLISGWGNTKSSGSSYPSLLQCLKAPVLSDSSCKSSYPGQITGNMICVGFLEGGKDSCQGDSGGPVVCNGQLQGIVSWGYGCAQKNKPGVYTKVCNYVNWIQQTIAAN
smiles,measurement,setting,value
Cc1ccc(C2(O)C[N+](c3ccccc3C)=C3SCCN32)cc1 (centres undefined),EC50,cells [1],> 350 µM (not active)
same,EC50,cells [2],> 350 µM (not active)
same,EC50,[3],0.376 µM (active)
same,EC50,[4],> 92.5 µM (inactive)
same,EC50,Mu-type opioid receptor,2.83 µM (active)
same,EC50,[5],> 92.5 µM (inactive)
COc1ccc(CNCCc2c[nH]c3ccccc23)c(OC)c1C,EC50,[3],0.841 µM (active)
same,EC50,[4],> 92.5 µM (inactive)
same,EC50,Mu-type opioid receptor,59.5 µM (inactive)
same,EC50,[5],78.4 µM (inactive)
same,AC50,[6],2.44 µM (active)
same,AC50,[7],24.9 µM (active)
same,AC50,[8],7.75 µM (active)
same,AC50,[9],5.48 µM (active)
same,AC50,[10],14.3 µM (active)
COC[C@H]1OC(=O)c2coc3c2[C@@]1(C)C1=C(C3=O)[C@@H]2CCC(=O)[C@@]2(C)C[C@H]1OC(C)=O [WORTMANNIN],EC50,[11],> 99 µM (inactive)
same,AC50,[12],0.363 µM (active)
same,EC50,[13],> 99 µM (inactive)
Cc1cccc(NC(=O)c2ccc(NCCc3ccccc3)c([N+](=O)[O-])c2)c1,EC50,[11],17.9 µM (active)
same,EC50,[13],> 99 µM (inactive)
COc1ccc(C)cc1S(=O)(=O)N(CC(=O)NC1CCCC1)c1ccc(F)cc1,AC50,Escherichia coli [14],37.2 µM (active)
Cc1c(C)c2c(OCC(=O)NCc3ccncc3)cc3c(c2oc1=O)CCC(C)(C)O3,AC50,Trypsin,5.4 µM (active)
same,AC50,CAAX prenyl protease 2,0.759 µM (active)
CC(=O)Oc1ccc2c(c1)OC(c1ccccc1)CC21CC(C)(C)N=C(S)N1 (centres undefined),AC50,Escherichia coli [15],31.7 µM (active)
c1ccc2cc(C3CCCCC3)ncc2c1,AC50,HeLa,36.7 µM (active)
COc1c(N2CCN(C(S)=NCc3ccccc3)C(C)C2)c(F)cc2c(=O)c(C(=O)O)cn(C3CC3)c12 (centres undefined),IC50,NS3,14.9 µM (not active)
same,AC50,DNA topoisomerase,27.8 µM (active)
same,IC50,[16],5.55 µM (active)
CN(C)[C@@H]1C(=O)C(C(N)=O)=C(O)[C@@]2(O)C(O)=C3C(=O)c4c(O)cccc4[C@@](C)(O)C3C[C@@H]12 (some centres undefined),EC50,[17],0.099 µM (active)
same,CC50,[18],> 40 µM (active)
same,EC50,Streptococcus,0.098 µM (active)
same,AC50,Escherichia coli [15],19.9 µM (active)
same,AC50,Escherichia coli [14],1.17 µM (active)
CC(=O)c1ccc(NC(=O)CCC(=O)OCC(=O)c2cccc([N+](=O)[O-])c2)cc1,EC50,Beta-galactosidase,> 40 µM (inactive)
same,IC50,[19],34.5 µM (not active)
Cc1ccc(CSC2=Nc3ccccc3C3=NC(=O)CN23)cc1,AC50,DNA topoisomerase,2.02 µM (active)
Nc1c(C(=O)Nc2ccccc2F)sc2nc(-c3cccnc3)ccc12,IC50,CHO,21.7 µM (inactive)
same,IC50,Beta Lactamase,14 µM (inactive)
COc1ccc2c(c1)oc(=O)c1cc(OC)ccc12,AC50,HeLa,46.8 µM (active)
